The source of these data is publication PMC8232895 (Drug Design, Development and Therapy, 2021).

Experiment [1] deals with T1, butyrylcholinesterase (BChE) (Equus caballus, UniProt P81908). Kind of experiment: biochemical. To be noted: read-out: BChE % Inhibition (Mean±SEM).
Experiment [2] can be described thus: DPPH free radical scavenging assay. To be noted: for DPPH radical % Inhibition (Mean±SEM): n 3; for IC50: read-out: DPPH scavenging IC50.
Experiment [3] in a line: ABTS free radical scavenging assay. To be noted: for ABTS radical % Inhibition (Mean±SEM): n 3; for IC50: read-out: ABTS scavenging IC50.
Experiment [4] concerns the target T1, butyrylcholinesterase (BChE). As to conditions: n 3.

Like-named read-outs stand apart in the source and are kept apart here. Where only a bound is given, the exact number is not on record here.

T1 sequence (P81908 whole entry): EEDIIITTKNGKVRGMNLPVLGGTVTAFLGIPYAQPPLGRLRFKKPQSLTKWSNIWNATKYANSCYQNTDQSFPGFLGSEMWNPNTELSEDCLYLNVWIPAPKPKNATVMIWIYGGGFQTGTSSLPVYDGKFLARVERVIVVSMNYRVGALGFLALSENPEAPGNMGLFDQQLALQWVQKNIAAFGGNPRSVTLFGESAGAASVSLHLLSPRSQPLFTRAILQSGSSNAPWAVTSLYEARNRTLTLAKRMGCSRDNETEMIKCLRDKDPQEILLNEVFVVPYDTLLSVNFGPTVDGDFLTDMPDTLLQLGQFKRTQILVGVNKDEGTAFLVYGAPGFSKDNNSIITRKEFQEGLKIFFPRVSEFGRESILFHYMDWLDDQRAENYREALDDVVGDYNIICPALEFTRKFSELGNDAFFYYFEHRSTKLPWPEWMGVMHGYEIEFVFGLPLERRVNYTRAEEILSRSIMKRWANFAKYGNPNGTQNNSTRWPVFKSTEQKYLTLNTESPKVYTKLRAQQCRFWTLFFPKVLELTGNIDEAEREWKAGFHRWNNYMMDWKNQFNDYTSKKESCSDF

Regarding `COc1ccc2c3c1O[C@H]1C[C@@H](O)C=C[C@@]31CCN(C)C2` [Galantamine], the inhibition (in general, the percentage by which the read-out fell short of the control) at 15.62 µg/mL in experiment [1] turned out to be 82.76 ± 0.44%.

For “({3-[(4-Methoxy-2-Nitrophenyl) Carbamoyl] Propanoyl} Zincio 3-[(2-Methoxy-5-Nitrophenyl) Carbamoyl] Propanoate Pyridine [AAZ8]”, the “DPPH radical % Inhibition (Mean±SEM)” value in experiment [2] (15.62 µg/mL) turned out to be 69.87±0.59%; in experiment [2] (31.25 µg/mL), 73.47±0.26 %; in experiment [2] (62.5 µg/mL) it was 75.68±0.97%; in experiment [2] (125 µg/mL), 77.85±0.39 %; in experiment [2] (250 µg/mL) it was 79.54±0.63 %; in experiment [2] (500 µg/mL), 81.69±0.45 %. Also, the “DPPH radical % Inhibition (Mean±SEM)” value in experiment [2] (1000 µg/mL) is 83.97±0.12%. Besides, the values for the IC50 in experiment [2] and in experiment [3] were 29 µM and 41 µM, respectively. Besides, in experiment [3], the “ABTS scavenging IC50” value amounted to 29 µg/mL. The “ABTS radical % Inhibition (Mean±SEM)” value was determined as 65.39±0.89% in experiment [3] (15.62 µg/mL); 70.28±0.36 % in experiment [3] (31.25 µg/mL); 73.62±0.29% in experiment [3] (62.5 µg/mL); 77.45±0.87 % in experiment [3] (125 µg/mL); 78.36±0.58% in experiment [3] (250 µg/mL); 79.27±0.64 % in experiment [3] (500 µg/mL). The “ABTS radical % Inhibition (Mean±SEM)” value in experiment [3] (1,000 µg/mL) came to 81.35±0.35%. The “BChE % Inhibition (Mean±SEM)” value in experiment [4] (15.62 µg/mL) was 77.93±0.78 %; in experiment [4] (31.25 µg/mL), 79.31±0.67%; in experiment [4] (62.5 µg/mL), 80.72±0.58%; in experiment [4] (125 µg/mL), 81.64±1.04 %; in experiment [4] (250 µg/mL), 83.54±0.74%; in experiment [4] (500 µg/mL), 84.13±0.45 %. The “BChE % Inhibition (Mean±SEM)” value in experiment [4] (1,000 µg/mL) turned out to be 85.17±0.87 %.

As to `O=C1O[C@H]([C@@H](O)CO)C(O)=C1O` [Ascorbic Acid, reference compound], in experiment [2], the “DPPH scavenging IC50” value is listed as less than 0.1 µg/mL. Also, the “DPPH radical % Inhibition (Mean±SEM)” value in experiment [2] (15.62 µg/mL) came to 77.28±0.79%; in experiment [2] (31.25 µg/mL) it was 82.74±0.23%; in experiment [2] (62.5 µg/mL), 84.44±0.15%; in experiment [2] (125 µg/mL) it was 87.25±0.48%; in experiment [2] (250 µg/mL), 91.54±0.37%; in experiment [2] (500 µg/mL), 93.65±0.54%. The “DPPH radical % Inhibition (Mean±SEM)” value in experiment [2] (1000 µg/mL) is on record as 95.63±0.12%. In addition, the IC50 (commonly the concentration that gives 50% inhibition) is 0.173 µM in experiment [2] and 0.129 µM in experiment [3]. In experiment [3], the “ABTS scavenging IC50” value was less than 0.1 µg/mL. Also, the “ABTS radical % Inhibition (Mean±SEM)” value in experiment [3] (15.62 µg/mL) was 77.65±0.32%; in experiment [3] (31.25 µg/mL), 79.29±0.91%; in experiment [3] (62.5 µg/mL) it was 81.75±0.85%; in experiment [3] (125 µg/mL) it was 84.68±0.56%; in experiment [3] (250 µg/mL), 85.34±0.47%; in experiment [3] (500 µg/mL), 88.25±0.87%. In addition, the “ABTS radical % Inhibition (Mean±SEM)” value in experiment [3] (1,000 µg/mL) came to 92.36±0.65%.
